# Assay results: paper PMC11481871, “Discovery of GuaB inhibitors with efficacy against Acinetobacter baumannii infection” (mBio, 2024)
# “And” between values parts separate entries of the source, which are not always exact repeats. Equal entries are not always repeated. Where two headings read alike, the source gives them in different places.
# How the values were obtained:
# [1] = test system: Acinetobacter baumannii ATCC19606 GuaB mutants; test: MIC on GuaBi-resistant A. baumannii 19606 guaB mutants; format: cell-based; conditions: for MIC: Acinetobacter baumannii
# E. coli GuaB = E. coli GuaB (Escherichia coli, UniProt P0ADG7); test: GuaB biochemical IC50
# Chain of E. coli GuaB (P0ADG7 whole entry): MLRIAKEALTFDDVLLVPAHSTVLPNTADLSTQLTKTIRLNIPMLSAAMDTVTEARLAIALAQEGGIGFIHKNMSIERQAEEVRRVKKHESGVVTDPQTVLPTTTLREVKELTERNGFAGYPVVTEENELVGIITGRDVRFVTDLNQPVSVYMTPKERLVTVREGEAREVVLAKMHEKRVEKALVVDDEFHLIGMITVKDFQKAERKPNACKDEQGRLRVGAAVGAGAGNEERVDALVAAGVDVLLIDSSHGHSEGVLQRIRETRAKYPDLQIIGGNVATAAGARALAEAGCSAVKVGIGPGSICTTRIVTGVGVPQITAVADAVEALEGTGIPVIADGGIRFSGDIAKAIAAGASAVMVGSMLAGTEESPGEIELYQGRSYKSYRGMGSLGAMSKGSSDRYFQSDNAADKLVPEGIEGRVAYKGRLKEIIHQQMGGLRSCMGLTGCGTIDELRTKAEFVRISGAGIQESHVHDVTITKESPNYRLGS
# Enterococcus faecalis = test: MIC, CLSI microdilution; format: cell-based; conditions: Enterococcus faecalis (ATCC47077); RPMI1640
# Citrobacter werkmanii = test: MIC, CLSI microdilution; format: cell-based; conditions: 20 h; Citrobacter werkmanii (ATCC51114); M9 + casamino acids + glucose
# A. baumannii GuaB = A. baumannii GuaB (Acinetobacter baumannii, UniProt D0CF46); test: GuaB biochemical IC50
# Chain of A. baumannii GuaB (D0CF46 entry or part of it): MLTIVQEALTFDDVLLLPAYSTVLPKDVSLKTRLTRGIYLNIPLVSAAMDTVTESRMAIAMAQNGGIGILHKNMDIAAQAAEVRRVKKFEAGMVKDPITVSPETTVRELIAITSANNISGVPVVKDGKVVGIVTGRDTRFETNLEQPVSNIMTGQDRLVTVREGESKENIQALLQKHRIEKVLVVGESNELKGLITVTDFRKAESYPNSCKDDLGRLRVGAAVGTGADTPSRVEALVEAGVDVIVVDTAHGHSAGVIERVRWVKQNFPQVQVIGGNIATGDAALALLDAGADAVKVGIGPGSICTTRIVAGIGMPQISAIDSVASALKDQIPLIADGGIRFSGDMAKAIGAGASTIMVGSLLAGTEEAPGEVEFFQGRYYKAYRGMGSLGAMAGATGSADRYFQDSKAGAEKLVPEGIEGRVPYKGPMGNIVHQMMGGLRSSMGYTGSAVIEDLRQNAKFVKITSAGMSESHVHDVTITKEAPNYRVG
# in vitro = format: cell-based, human; conditions: human
# Procedure: (§1) Primary human hepatocytes were plated on 384-well, collagen-coated plates in incubation media with no serum or with 10% fetal bovine serum (FBS). Eighteen hours later, cells were treated with the test article at seven concentrations starting at 100 µM in twofold dilutions, chlorpromazine (positive control) at seven concentrations starting at 100 µM in twofold dilutions or aflatoxin (positive control) at seven concentrations starting at 25 µM in twofold dilutions. Cell viability was then assayed using the Promega Cell TiterGlo ATP Assay.
# [2] = test system: Primary human hepatocytes; test: in vitro; format: cell-based
# Procedure: as §1
# Escherichia coli = test: MIC, CLSI microdilution; format: cell-based; conditions: 20 h; Escherichia coli UPEC CFT073; M9 + casamino acids + glucose
# Enterobacter cloacae = test: MIC, CLSI microdilution; format: cell-based; conditions: 20 h; Enterobacter cloacae (ATCC222); M9 + casamino acids + glucose
# Klebsiella pneumoniae = test: MIC, CLSI microdilution; format: cell-based; conditions: ATCC43816, 20 h; Klebsiella pneumoniae (ATCC 43816); M9 + casamino acids + glucose
# [3] = test system: 41 different cellular targets; test: Secondary pharmacology panel (Cerep Eurofins); format: binding
# Mycobacterium marinum = test: MIC, CLSI microdilution; format: cell-based; conditions: 7H9 + OADC, 48 h
# Serratia marcescens = test: MIC, CLSI microdilution; format: cell-based; conditions: 20 h; Serratia marcescens (ATCC29021); M9 + casamino acids + glucose
# [4] = test system: A. baumannii 19606 (wild-type); test: microbe, parasite or virus in culture; format: cell-based, Acinetobacter baumannii; conditions: for MIC: Acinetobacter baumannii
# S. aureus GuaB = S. aureus GuaB (Staphylococcus aureus, UniProt P99106); test: GuaB biochemical IC50
# Chain of S. aureus GuaB (P99106 whole entry): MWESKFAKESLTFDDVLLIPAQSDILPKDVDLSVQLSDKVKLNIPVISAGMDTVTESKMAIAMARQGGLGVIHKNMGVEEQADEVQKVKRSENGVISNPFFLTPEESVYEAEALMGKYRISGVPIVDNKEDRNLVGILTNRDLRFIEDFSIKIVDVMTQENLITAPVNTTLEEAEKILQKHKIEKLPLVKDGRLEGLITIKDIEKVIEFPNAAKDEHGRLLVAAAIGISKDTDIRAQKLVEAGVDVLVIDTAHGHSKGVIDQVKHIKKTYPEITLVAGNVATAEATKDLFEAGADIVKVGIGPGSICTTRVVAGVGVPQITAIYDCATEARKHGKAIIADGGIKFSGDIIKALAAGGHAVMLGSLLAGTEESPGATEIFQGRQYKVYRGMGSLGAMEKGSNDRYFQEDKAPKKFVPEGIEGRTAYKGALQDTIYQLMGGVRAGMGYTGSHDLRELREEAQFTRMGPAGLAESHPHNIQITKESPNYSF
# H. sapiens IMPDH2 = H. sapiens IMPDH2 (Homo sapiens, UniProt P12268); test: IMPDH2 biochemical IC50
# Enterococcus faecium = test: MIC, CLSI microdilution; format: cell-based; conditions: Enterococcus faecium (ATCC700221); RPMI1640
# Mycobacterium avium = test: MIC, CLSI microdilution; format: cell-based; conditions: 336 h; Mycobacterium avium (ATCC25291); 7H9 + OADC, 14 days
# Staphylococcus aureus = test: MIC, CLSI microdilution; format: cell-based; conditions: NRS 384 / USA300; Staphylococcus aureus USA300 NRS384; RPMI1640
# Enterobacter aerogenes = test: MIC, CLSI microdilution; format: cell-based; conditions: Klebsiella aerogenes, 20 h; Enterobacter aerogenes (ATCC13048); M9 + casamino acids + glucose
# Acinetobacter baumannii = test: MIC, CLSI microdilution; format: cell-based; conditions: 20 h, M9 + casamino acids + glucose
# Pseudomonas aeruginosa = test: MIC, CLSI microdilution; format: cell-based; conditions: 20 h; Pseudomonas aeruginosa PAO1; M9 + casamino acids + glucose
# [5] = test system: A. baumannii ΔlpxA (LPS-null); test: MIC on LPS-null A. baumannii; format: cell-based; conditions: Acinetobacter baumannii, read-out: Avg. MIC
# [6] = test system: A. baumannii ΔadeJ (efflux-defective); test: microbe, parasite or virus in culture; format: cell-based; conditions: Acinetobacter baumannii, read-out: Avg. MIC
# [7] = test system: Stenotrophomonas maltophilia; test: MIC, CLSI microdilution; format: cell-based; conditions: 20 h; Stenotrophomonas maltophilia (ATCC700267); M9 + casamino acids + glucose
# Bacillus subtilis = test: MIC, CLSI microdilution; format: cell-based; conditions: RPMI1640
# Proteus mirabilis = test: MIC, CLSI microdilution; format: cell-based; conditions: 20 h; Proteus mirabilis (ATCC29906); M9 + casamino acids + glucose
# [8] = test system: Staphylococcus epidermidis; test: MIC, CLSI microdilution; format: cell-based; conditions: Staphylococcus epidermidis RP62A (ATCC35984); RPMI1640
# [9] = test system: Mycobacterium tuberculosis H37Rv; test: MIC, resazurin redox assay; format: cell-based; conditions: ATCC 27294 / H37Rv, 192 h, Mycobacterium tuberculosis H37Rv (ATCC27294)
# Mycobacterium smegmatis = test: MIC, CLSI microdilution; format: cell-based; conditions: Mycolicibacterium smegmatis; Mycobacterium smegmatis mc2-155; 7H9 + OADC, 48 h
# [10] = resistance allele Y445N, from fluctuation assay
structure (smiles),measurement,setting,value
"C[C@H](Nc1ccc2ncc3c(c2c1)CCOC3)C(=O)Nc1ccc(Cl)nc1 [G1, (2S)-N-(6-chloro-3-pyridyl)-2-(2,4-dihydro-1H-pyrano[3,4-c]quinolin-9 ylamino)propanamide]",MIC,"[1]; ATCC19606, read-out: A.b.19606 Average CLSI MIC (n=3), guaB allele P25A, M9 media",6.3 µM
same,MIC,"[1]; ATCC19606, read-out: A.b.19606 Average CLSI MIC (n=3), guaB allele P25S, M9 media",2.6 µM
same,MIC,"[1]; ATCC19606, read-out: A.b.19606 Average CLSI MIC (n=3), guaB allele Y445C, M9 media",1.6 µM
same,MIC,"[1]; ATCC19606, read-out: A.b.19606 Average CLSI MIC (n=3), guaB allele Y445N, M9 media",41.7 µM
same,MIC,"[1]; ATCC19606, read-out: A.b.19606 Average CLSI MIC (n=3), guaB allele Y445S, M9 media",> 100 µM
same,MIC,"[1]; ATCC19606, read-out: MIC of resistant mutant, resistance allele Y445N, from fluctuation assay",50 µM
same,MIC,"[1]; ATCC19606, read-out: MIC of resistant mutant, resistance allele Y445S, from fluctuation assay",50 µM
same,shifts in MIC conferred by on-target mutations,[1]; GuaBi-resistant mutants,≥ 32 fold
same,GuaBi CLSI MIC fold change from parent strain,[1]; guaB allele P25A,12
same,GuaBi CLSI MIC fold change from parent strain,[1]; guaB allele P25S,5
same,GuaBi CLSI MIC fold change from parent strain,[1]; guaB allele Y445C,3
same,GuaBi CLSI MIC fold change from parent strain,[1]; guaB allele Y445N,80
same,GuaBi CLSI MIC fold change from parent strain,[1]; guaB allele Y445S,>200
same,Fold shift in MIC vs parental wild-type,[1]; [10],"64, 64 and 64"
same,MIC of resistant mutant,[1]; [10],50 µM
same,Fold shift in MIC vs parental wild-type,"[1]; resistance allele Y445S, from fluctuation assay","64, 64"
same,IC50,E. coli GuaB,480 nM
same,MIC,Enterococcus faecalis,0.2 µM
same,MIC,Citrobacter werkmanii,> 100 µM
same,IC50,A. baumannii GuaB,0.26 nM
same,IC50 at 2 day,"in vitro; General cytotoxicity IC50, Serum",> 100 µM
same,IC50 at 2 day,"in vitro; General cytotoxicity IC50, Serum-Free",> 100 µM
same,in vitro safety profile: cytotoxicity,[2],low cytotoxicity
same,MIC,Escherichia coli,> 100 µM
same,MIC,Enterobacter cloacae,> 100 µM
same,MIC,Klebsiella pneumoniae,> 100 µM
same,in vitro safety profile: promiscuity,[3],low promiscuity
same,in vitro safety profile: selectivity,[3],good selectivity
same,Promiscuity Risk,[3]; 10µM,0%
same,Selectivity Risk,[3]; 10µM,0%
same,Hits (>50% Binding),"[3]; 10µM, 41 targets",0
same,Hits (>75% Binding),"[3]; 10µM, 41 targets",0
same,MIC,Mycobacterium marinum,0.01 µM
same,MIC,Serratia marcescens,> 100 µM
same,MIC,"[4]; 24 h, M9 media + 100µM guanine, 24 hours, read-out: A.b.19606 Average CLSI MIC (n=3)",> 100 µM
same,MIC,"[4]; 24 h, M9 media, 24 hours, read-out: A.b.19606 Average CLSI MIC (n=3)",1 µM
same,MIC,"[4]; A. baumannii 19606 wild-type (Fig 3D), read-out: Avg. MIC",0.69 µM
same,MIC,"[4]; guaB allele wild-type, M9 media (cross-resistance table), read-out: A.b.19606 Average CLSI MIC (n=3)",0.5 µM
same,GuaBi CLSI MIC fold change from parent strain,[4]; guaB allele wild-type,1
same,IC50,S. aureus GuaB,0.38 nM
same,IC50,H. sapiens IMPDH2,> 50 µM
same,MIC,Enterococcus faecium,1 µM
same,MIC,Mycobacterium avium,0.8 µM
same,MIC,Staphylococcus aureus,0.1 µM
same,MIC,Enterobacter aerogenes,> 100 µM
same,MIC,Acinetobacter baumannii,0.5 µM
same,MIC,Pseudomonas aeruginosa,100 µM
same,MIC,[5],0.025 µM
same,MIC,[6],0.016 µM
same,MIC,[7],14 µM
same,MIC,Bacillus subtilis,1.2 µM
same,MIC,Proteus mirabilis,> 100 µM
same,MIC,[8],0.03 µM
same,MIC,[9],0.3 µM
same,MIC,Mycobacterium smegmatis,0.01 µM
